Columns and labels:
[1] = Test of in vitro efficacy: in vitro sun protection factor (Diffey method) of O/W emulsions; settings: screening agent 5% in O/W support, mean of three SPF values
From the text: Test of In Vitro Efficacy:
The method for evaluating the protection factor used is the in vitro method described by B. L. Diffey et al. in J. Soc. Cosmet. Chem. 40-127-133 (1989), which consists in determining the monochromatic protection factors every 5 nm in a wavelength range from 290 to 400 nm, and in calculating therefrom the sun protection factor according to a given mathematical equation.
Two screening agents of triazine type were formulated in a support of O/W type, at 5% by weight, in the solvent according to the invention and in a comparative solvent (Finsolv TN), and three SPF values, the mean and the standard deviation of which are collated in the table below, were determined for each formulation: […]

[2] = Comparative study of the solubility of a triazine derivative in different solvents; assay type: physicochemical; settings: heated to 83° C., crystals observed after 24 hours and cooling to room temperature
Description: Comparative Study of the Solubility of a Triazine Derivative in Different Solvents The solubility of a triazine derivative (i.e., 2,4,6-tris(diisobutyl 4′-aminobenzalmalonate)-s-triazine) in different solvents was determined by means of the following test:
20 g of solvent are added, at room temperature, to 5 g of screening agent, the mixture thus obtained is brought to 83° C. using a water bath, the presence or absence of crystals is observed after 24 hours and cooling to room temperature.
The results obtained are collated in the table below (the chemical names are given in the CTFA nomenclature, 5th edition, 1993).

[3] = solvent 15% C12-C15 alkyl benzoate "Finsolv TN" (comparative)
[4] = solvent 15% n-butylphthalimide/isopropylphthalimide Pelemol BIP (invention)

Compound | Mean SPF (Standard Deviation) [1, 3] | Mean SPF (Standard Deviation) [1, 4] | SOLUBILITY OF THE TRIAZINE SCREENING AGENT ([2]; solvent: C8-C12 fatty acid triglycerides "Miglyol 812") | SOLUBILITY OF THE TRIAZINE SCREENING AGENT ([2]; solvent: C12-C15 alkyl benzoate "Finsolv TN") | SOLUBILITY OF THE TRIAZINE SCREENING AGENT ([2]; solvent: PPG-3 myristyl ether "Witconol APM") | SOLUBILITY OF THE TRIAZINE SCREENING AGENT ([2]; solvent: n-butylphthalimide/isopropylphthalimide eutectic mixture Pelemol BIP (invention))
CC(C)COC(=O)C(=Cc1ccc(Nc2nc(Nc3ccc(C=C(C(=O)OCC(C)C)C(=O)OCC(C)C)cc3)nc(Nc3ccc(C=C(C(=O)OCC(C)C)C(=O)OCC(C)C)cc3)n2)cc1)C(=O)OCC(C)C [2,4,6-tris(diisobutyl 4′-aminobenzalmalonate)-s-triazine] | 4.1 | 8.0 | <10% | <10% | <10% | 40%
CCCCC(CC)COc1ccc(-c2nc(-c3ccc(OC)cc3)nc(-c3ccc(OCC(CC)CCCC)cc3O)n2)c(O)c1 (centres unmarked) [Anisotriazine] | 8.5 | 11.4 | – | – | – | –

Reference: US20040151677A1, “1,3,5-Triazine sunscreens solubilized in mixed phthalimide eutectics” (SOCIETE L'OREAL, S.A., priority 2002, published 2004)
